Bridge positions count the residues as written; N and C are the ends. Ends that are not written are not given here. I, II: the chains in the order shown.
Columns and labels:
[1] = tested on: Anti-C5/gp41 sera from BI400-B immunized rabbits; experiment: Competitive ELISA for rabbit sera after immunization with BI400-B; type: binding; details: antigen 10-1000 μM preincubated with rabbit serum; FIG. 3
Protocol: 50-100 μl of a mixture of BI400-015 and -201 (pre-incubated in Coating buffer—0.05M Na2CO3 pH9.6; denoted CB—in cold at 16 μg/ml for each peptide 1-3 days prior to coating) or just CB (background control) was used for coating wells in microtiter plates at 4° C. overnight. Plates were then washed 3× with washing buffer (PBS+1% v/v Triton-X100; denoted WB), followed by 2 h blocking at room temperature (RT) with 200 μl/well of blocking buffer (PBS+1% w/v BSA). Plates were then washed 3× with WB, followed by 1 h incubation at 37° C. with 60-100 μl/well of added rabbit serum samples (diluted 1:10-1:250 final concentration) preincubated together (4° C. overnight) with serial dilutions (ranging from 10-1000 μM final concentration) of 400-SEQ.B, BI400-015, BI400-201, BI400-204d, recombinant gp41 (Shin-Won Scientific, SWO 102 gp41), BI301-23 (irrelevant protein; control), no peptide (i.e. PBS; control), LTNP-sera pools (diluted 1:10 final concentration), or Blood donor sera-pools (diluted 1:10 final concentration; control). Plates were then washed 6× with WB, followed by 1 h incubation at RT with 70 μl/well of Alkaline Phosphatase-conjugated Goat-anti-Rabbit-Ig (6 μg/ml; Dako D0487). […] Plates were finally quenched by adding 100 μl/well of Quench solution (0.1M TRIS+0.1M EDTA+0.5M NaOH+0.01% w/v NaN3; pH14), followed by ELISA reader (ASYS UVM 340) at 550 nm.

HIV specific T-cells = details: IMiD present during stimulation with dendritic cells presenting Gag- or Nef-specific peptides; cited from earlier work
[2] = Toxicity of the dipeptide in mice; type: in vivo, NMFI female mice; details: injection, 100 μg per kg bodyweight, 4 mg/ml in 0.9% NaCl
Protocol: The dipeptide of Example 20 was diluted in 0.9% NaCl to a test solution concentration of 4 mg/ml. The peptide was administered by injection to NMFI female mice in a dose of 100 μg per kg bodyweight.

Compound | inhibition of antibody binding to C5/gp41 (015/201) by antigen [1] | function of the T-cells (HIV specific T-cells) | other results
201: gp41 peptide (DRPEGIEEEGGERDR) [compound 201] | could be inhibited |  | 
Nc1cccc2c1CN(C1CCC(=O)NC1=O)C2=O (centres unmarked) [Lenalidomide] |  | a number of improvements in the function of the T-cells | 
Nc1cccc2c1C(=O)N(C1CCC(=O)NC1=O)C2=O (centres unmarked) [pomalidomide] |  | a number of improvements in the function of the T-cells | 
GGAIVNGSLADDDIVI [204d, peptide derived from C2] | could be inhibited |  | 
I: WIIPGLNPLVGGGKLYSPTSILCG-NH2 / II: KALGPGATLQTPWTACQGVG-NH2 (disulfide I:23-II:16) [Example 20] |  |  | toxicological effects [2]: No toxicological effects were observed

Source: patent US10335482B2, “Method of inducing an anti-HIV-1 immune response comprising administering a C5/TM-GP41 peptide dimer” (priority 2012, dated 2019)
